Data as given in patent publication US8450317B2, “CXCR3 receptor antagonists” (Boehringer Ingelheim International GmbH, priority 2009, dated 2013).

Biological target: CXCR3 (Macaca fascicularis, UniProt A0A2K5UV19)
Assay: functional cellular assay measuring calcium flux in CXCR3 transfected cells (block of CXCR3/IP-10 interaction)
Format: cell-based, Cyno
Details: IP-10 induced intracellular calcium flux; Cyno-CHO cells stably expressing recombinant CXCR3 and G-alpha-16; IP-10 at EC80; read-out: IC50
Outline: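 Cyno-CHO cells stably expressing CXCR3 and G-alpha-16, loaded with Ca-4 dye in HBSS/10 mM HEPES pH 7.4 with 2 mM probenecid for 1 h at 37° C. Compound (final 10 microM) preincubated 15 min at room temperature, then IP-10 at EC80 added; calcium flux read at 480/540 nm.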

Chain of CXCR3 (A0A2K5UV19 entry or part of it): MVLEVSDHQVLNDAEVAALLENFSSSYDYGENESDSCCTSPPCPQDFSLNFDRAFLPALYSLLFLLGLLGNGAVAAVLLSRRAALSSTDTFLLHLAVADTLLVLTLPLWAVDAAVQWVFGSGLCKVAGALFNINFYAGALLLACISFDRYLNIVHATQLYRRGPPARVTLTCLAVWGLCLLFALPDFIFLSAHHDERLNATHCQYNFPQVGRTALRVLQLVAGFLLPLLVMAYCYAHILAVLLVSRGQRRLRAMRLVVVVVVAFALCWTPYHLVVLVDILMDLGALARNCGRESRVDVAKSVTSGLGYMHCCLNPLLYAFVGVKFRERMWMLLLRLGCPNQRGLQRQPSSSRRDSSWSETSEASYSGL

| IC50 [nM] | Structure (SMILES) |
| --- | --- |
| 19 | Cc1cc(C)n(CC(=O)N2CCN(c3ccccc3-c3ccc4ccn(C)c4c3)CC2)n1 [2-(3,5-Dimethyl-pyrazol-1-yl)-1-{4-[2-(1-methyl-1H-indol-6-yl)-phenyl]-piperazin-1-yl}-ethanone] |
| 81 | Cc1cc(C)n(CC(=O)N2CCN(c3ccccc3-c3ccc4cc[nH]c4c3)CC2)n1 [2-(3,5-Dimethyl-pyrazol-1-yl)-1-{4-[2-(1H-indol-6-yl)-phenyl]-piperazin-1-yl}-ethanone] |
| 11 | Cc1cc(C)n(CC(=O)N2CCN(c3ccccc3-c3cnc(N4CCCOCC4)nc3)CC2)n1 [2-(3,5-Dimethyl-pyrazol-1-yl)-1-{4-[2-(2-[1,4]oxazepan-4-yl-pyrimidin-5-yl)-phenyl]-piperazin-1-yl}-ethanone] |
| 18 | CCOc1ncc(-c2ccccc2N2CCN(C(=O)Cn3nc(C)cc3C)CC2)cn1 [2-(3,5-Dimethyl-pyrazol-1-yl)-1-{4-[2-(2-ethoxy-pyrimidin-5-yl)-phenyl]-piperazin-1-yl}-ethanone] |
| 10 | CCNc1ncc(-c2ccccc2N2CCN(C(=O)Cn3nc(C)cc3C)CC2)cn1 [2-(3,5-Dimethyl-pyrazol-1-yl)-1-{4-[2-(2-ethylamino-pyrimidin-5-yl)-phenyl]-piperazin-1-yl}-ethanone] |
| 54 | Cc1cc(C)n(CC(=O)N2CCN(c3ccc(C(F)(F)F)cc3-c3cnc(S(C)(=O)=O)nc3)CC2)n1 [2-(3,5-Dimethyl-pyrazol-1-yl)-1-{4-[2-(2-methanesulfonyl-pyrimidin-5-yl)-4-trifluoromethyl-phenyl]-piperazin-1-yl}-ethanone] |
| 8 | COc1ncc(-c2cc(C(F)(F)F)ccc2N2CCN(C(=O)Cn3nc(C)cc3C)CC2)cn1 [2-(3,5-Dimethyl-pyrazol-1-yl)-1-{4-[2-(2-methoxy-pyrimidin-5-yl)-4-trifluoromethyl-phenyl]-piperazin-1-yl}-ethanone] |
| 46 | COc1ncc(-c2ccccc2N2CCN(C(=O)Cn3nc(C)cc3C)CC2)cn1 [2-(3,5-Dimethyl-pyrazol-1-yl)-1-{4-[2-(2-methoxy-pyrimidin-5-yl)-phenyl]-piperazin-1-yl}-ethanone] |
| 67 | Cc1cc(C)n(CC(=O)N2CCN(c3ccccc3-c3cnc(C)nc3)CC2)n1 [2-(3,5-Dimethyl-pyrazol-1-yl)-1-{4-[2-(2-methyl-pyrimidin-5-yl)-phenyl]-piperazin-1-yl}-ethanone] |
| 7 | CNc1ncc(-c2cc(C(F)(F)F)ccc2N2CCN(C(=O)Cn3nc(C)cc3C)CC2)cn1 [2-(3,5-Dimethyl-pyrazol-1-yl)-1-{4-[2-(2-methylamino-pyrimidin-5-yl)-4-trifluoromethyl-phenyl]-piperazin-1-yl}-ethanone] |
| 34 | CNc1ncc(-c2ccccc2N2CCN(C(=O)Cn3nc(C)cc3C)CC2)cn1 [2-(3,5-Dimethyl-pyrazol-1-yl)-1-{4-[2-(2-methylamino-pyrimidin-5-yl)-phenyl]-piperazin-1-yl}-ethanone] |
| 5 | CSc1ncc(-c2cc(C(F)(F)F)ccc2N2CCN(C(=O)Cn3nc(C)cc3C)CC2)cn1 [2-(3,5-Dimethyl-pyrazol-1-yl)-1-{4-[2-(2-methylsulfanyl-pyrimidin-5-yl)-4-trifluoromethyl-phenyl]-piperazin-1-yl}-ethanone] |
| 10 | CSc1ncc(-c2ccccc2N2CCN(C(=O)Cn3nc(C)cc3C)CC2)cn1 [2-(3,5-Dimethyl-pyrazol-1-yl)-1-{4-[2-(2-methylsulfanyl-pyrimidin-5-yl)-phenyl]-piperazin-1-yl}-ethanone] |
| 8 | Cc1cc(C)n(CC(=O)N2CCN(c3ccc(C(F)(F)F)cc3-c3cnc(N4CCOCC4)nc3)CC2)n1 [2-(3,5-Dimethyl-pyrazol-1-yl)-1-{4-[2-(2-morpholin-4-yl-pyrimidin-5-yl)-4-trifluoromethyl-phenyl]-piperazin-1-yl}-ethanone] |

The remaining lines, values behind:

| Structure (SMILES) | IC50 [nM] |
| --- | --- |
| COc1ccc(N2CCN(C(=O)Cn3ccc4cccnc43)CC2)c(-c2cnc(N3CCOCC3)nc2)c1 [1-{4-[4-Methoxy-2-(2-morpholin-4-yl-pyrimidin-5-yl)-phenyl]-piperazin-1-yl}-2-pyrrolo[2,3-b]pyridin-1-yl-ethanone] | 9 |
| COc1ncc(-c2cc(F)ccc2N2CCN(C(=O)Cn3ccc4cccnc43)CC2)cn1 [1-{4-[4-fluoro-2-(2-methoxypyrimidin-5-yl)phenyl]piperazin-1-yl}-2-(1H-pyrrolo[2,3-b]pyridin-1-yl)ethanone] | 11 |
| COc1ncc(-c2cc(F)ccc2N2CCN(C(=O)Cn3ccc4ccncc43)CC2)cn1 [1-{4-[4-fluoro-2-(2-methoxypyrimidin-5-yl)phenyl]piperazin-1-yl}-2-(1H-pyrrolo[2,3-c]pyridin-1-yl)ethanone] | 13 |
| COc1ncc(-c2cc(F)ccc2N2CCN(C(=O)Cn3cnc4cccnc43)CC2)cn1 [1-{4-[4-fluoro-2-(2-methoxypyrimidin-5-yl)phenyl]piperazin-1-yl}-2-(3H-imidazo[4,5-b]pyridin-3-yl)ethanone] | 53 |
| CC1CN(c2ccc(C(F)(F)F)cc2-c2cnc(N3CCC(S(C)(=O)=O)CC3)nc2)CCN1C(=O)CN1Cc2ccccc2C1=O (centres unmarked) [2-(2-{2-methyl-4-[2-{2-[4-(methylsulfonyl)piperidin-1-yl]pyrimidin-5-yl}-4-(trifluoromethyl)phenyl]piperazin-1-yl}-2-oxoethyl)-2,3-dihydro-1H-isoindol-1-one] | 7 |
| COc1ncc(-c2ccccc2N2CCN(C(=O)CN3Cc4ccccc4C3=O)CC2)cn1 [2-(2-{4-[2-(2-Methoxy-pyrimidin-5-yl)-phenyl]-piperazin-1-yl}-2-oxo-ethyl)-2,3-dihydro-isoindol-1-one] | 17 |
| Cc1cc(C)n(CC(=O)N2CCN(c3ccccc3-c3cnc(N4CCCC(F)C4)nc3)CC2)n1 (centres unmarked) [2-(3,5-Dimethyl-pyrazol-1-yl)-1-(4-{2-[2-(3-fluoro-piperidin-1-yl)-pyrimidin-5-yl]-phenyl}-piperazin-1-yl)-ethanone] | 8 |
| Cc1cc(C)n(CC(=O)N2CCN(c3ccccc3-c3cnc(N4CCC(O)C4)nc3)CC2)n1 (centres unmarked) [2-(3,5-Dimethyl-pyrazol-1-yl)-1-(4-{2-[2-(3-hydroxy-pyrrolidin-1-yl)-pyrimidin-5-yl]-phenyl}-piperazin-1-yl)-ethanone] | 9 |
| Cc1cc(C)n(CC(=O)N2CCN(c3ccccc3-c3cnc(N4CCCC(C(F)(F)F)C4)nc3)CC2)n1 (centres unmarked) [2-(3,5-Dimethyl-pyrazol-1-yl)-1-(4-{2-[2-(3-trifluoromethyl-piperidin-1-yl)-pyrimidin-5-yl]-phenyl}-piperazin-1-yl)-ethanone] | 12 |
| Cc1cc(C)n(CC(=O)N2CCN(c3ccccc3-c3cnc(N4CCC(F)CC4)nc3)CC2)n1 [2-(3,5-Dimethyl-pyrazol-1-yl)-1-(4-{2-[2-(4-fluoro-piperidin-1-yl)-pyrimidin-5-yl]-phenyl}-piperazin-1-yl)-ethanone] | 10 |
| Cc1cc(C)n(CC(=O)N2CCN(c3ccccc3-c3cnc(N4CCC(O)CC4)nc3)CC2)n1 [2-(3,5-Dimethyl-pyrazol-1-yl)-1-(4-{2-[2-(4-hydroxy-piperidin-1-yl)-pyrimidin-5-yl]-phenyl}-piperazin-1-yl)-ethanone] | 7 |
| Cc1cc(C)n(CC(=O)N2CCN(c3ccccc3-c3cnc(N4CCC(S(C)(=O)=O)CC4)nc3)CC2)n1 [2-(3,5-Dimethyl-pyrazol-1-yl)-1-(4-{2-[2-(4-methanesulfonyl-piperidin-1-yl)-pyrimidin-5-yl]-phenyl}-piperazin-1-yl)-ethanone] | 6 |
| COC1(C)CCN(c2ncc(-c3ccccc3N3CCN(C(=O)Cn4nc(C)cc4C)CC3)cn2)CC1 [2-(3,5-Dimethyl-pyrazol-1-yl)-1-(4-{2-[2-(4-methoxy-4-methyl-piperidin-1-yl)-pyrimidin-5-yl]-phenyl}-piperazin-1-yl)-ethanone] | 33 |
| Cc1cc(C)n(CC(=O)N2CCN(c3ccccc3-c3cnc(N4CCN(C)CC4)nc3)CC2)n1 [2-(3,5-Dimethyl-pyrazol-1-yl)-1-(4-{2-[2-(4-methyl-piperazin-1-yl)-pyrimidin-5-yl]-phenyl}-piperazin-1-yl)-ethanone] | 40 |
| COC[C@@H]1CCCN1c1ncc(-c2ccccc2N2CCN(C(=O)Cn3nc(C)cc3C)CC2)cn1 [2-(3,5-Dimethyl-pyrazol-1-yl)-1-(4-{2-[2-((S)-2-methoxymethyl-pyrrolidin-1-yl)-pyrimidin-5-yl]-phenyl}-piperazin-1-yl)-ethanone] | 12 |
| Cc1cc(C)n(CC(=O)N2CCN(c3ccccc3-c3cnc(N4CCC5CCCCC5C4)nc3)CC2)n1 (centres unmarked) [2-(3,5-Dimethyl-pyrazol-1-yl)-1-(4-{2-[2-(octahydro-isoquinolin-2-yl)-pyrimidin-5-yl]-phenyl}-piperazin-1-yl)-ethanone] | 21 |
| Cc1cc(C)n(CC(=O)N2CCN(c3ccccc3-c3cnc(Oc4cccnc4)nc3)CC2)n1 [2-(3,5-Dimethyl-pyrazol-1-yl)-1-(4-{2-[2-(pyridin-3-yloxy)-pyrimidin-5-yl]-phenyl}-piperazin-1-yl)-ethanone] | 56 |
| Cc1cc(C)n(CC(=O)N2CCN(c3ccccc3-c3cnc(N4C[C@@H]5C[C@H]4CO5)nc3)CC2)n1 [2-(3,5-Dimethyl-pyrazol-1-yl)-1-(4-{2-[(1S,4S)-2-(2-oxa-5-aza-bicyclo[2.2.1]hept-5-yl)-pyrimidin-5-yl]-phenyl}-piperazin-1-yl)-ethanone] | 14 |
| Cc1cc(C)n(CC(=O)N2CCN(c3ccccc3-c3cnc(N4CCC(C(C)(C)O)CC4)nc3)CC2)n1 [2-(3,5-Dimethyl-pyrazol-1-yl)-1-[4-(2-{2-[4-(1-hydroxy-1-methyl-ethyl)-piperidin-1-yl]-pyrimidin-5-yl}-phenyl)-piperazin-1-yl]-ethanone] | 12 |
| COc1cccc(-c2ccccc2N2CCN(C(=O)Cn3nc(C)cc3C)CC2)c1 [2-(3,5-Dimethyl-pyrazol-1-yl)-1-[4-(3′-methoxy-biphenyl-2-yl)-piperazin-1-yl]-ethanone] | 56 |
| Cc1ccc(-c2ccccc2N2CCN(C(=O)Cn3nc(C)cc3C)CC2)cc1 [2-(3,5-Dimethyl-pyrazol-1-yl)-1-[4-(4′-methyl-biphenyl-2-yl)-piperazin-1-yl]-ethanone] | 70 |
